The text below walks through data of US7517873B2, “Substituted pyrimidodiazepines” (Hoffman-La Roche Inc., priority 2007, dated 2009).

Bounds are passed on as bounds.

For this experiment, the target named is T1, GST-PLK1 (Homo sapiens, UniProt P53350).
T1 construct: Full-length, active GST-PLK1 is purified from Sf9 insect cells; made in house; host or cells: Sf9 insect cells
Briefly: Biochemical Characterization Assay: GST-PLK1 kinase HTRF assay with GST-p53 substrate. The following applies: full-length GST-PLK1, GST-p53 and ATP, 37° C. for 35 minutes, HTRF signal. An outline of the steps: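 Full-length GST-PLK1 from Sf9 cells (3 ug/mL stock) with full-length E. coli GST-p53 substrate in HEPES pH 7 buffer with MgCl2, TCEP, orthovanadate, BSA and Triton X-100; compound stocks 0.6 nM-4 mM in DMSO. Reaction 35 min at 37 °C, EDTA-stopped; phospho-p53 detected by HTRF (Eu anti-rabbit/APC anti-GST).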

T1 sequence (P53350 whole entry): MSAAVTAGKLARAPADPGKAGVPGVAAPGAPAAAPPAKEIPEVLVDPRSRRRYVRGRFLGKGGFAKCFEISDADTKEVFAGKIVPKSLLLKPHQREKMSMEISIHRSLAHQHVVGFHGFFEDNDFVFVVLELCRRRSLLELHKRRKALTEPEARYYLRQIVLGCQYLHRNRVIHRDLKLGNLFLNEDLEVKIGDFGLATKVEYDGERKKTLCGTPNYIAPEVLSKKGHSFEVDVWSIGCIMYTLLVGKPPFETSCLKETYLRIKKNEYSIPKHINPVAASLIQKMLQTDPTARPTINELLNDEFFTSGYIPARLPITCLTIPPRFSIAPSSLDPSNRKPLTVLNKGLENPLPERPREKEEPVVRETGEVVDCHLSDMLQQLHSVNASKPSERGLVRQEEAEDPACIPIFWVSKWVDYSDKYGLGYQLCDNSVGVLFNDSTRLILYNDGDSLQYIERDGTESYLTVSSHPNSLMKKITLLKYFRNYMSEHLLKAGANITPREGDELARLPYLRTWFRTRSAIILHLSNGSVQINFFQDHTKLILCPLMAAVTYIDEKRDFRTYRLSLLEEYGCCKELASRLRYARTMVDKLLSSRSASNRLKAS

As to `COc1ccccc1Nc1ncc2c(n1)N(C1CCC1)CCC(=O)N2C` [I-25, 9-Cyclobutyl-2-(2-methoxy-phenylamino)-5-methyl-5,7,8,9-tetrahydro-pyrimido[4,5-b][1,4]diazepin-6-one], the IC50 (usually the concentration needed to halve the response being measured) was more than 5 µM. `COc1cc(C(=O)NC2CCN(C)CC2)ccc1Nc1ncc2c(n1)N(CCC(C)C)CC(C)C(=O)N2C` (racemic) [I-27, (rac)-4-[5,7-Dimethyl-9-(3-methyl-butyl)-6-oxo-6,7,8,9-tetrahydro-5H-pyrimido[4,5-b][1,4]diazepin-2-ylamino]-3-methoxy-N-(1-methyl-piperidin-4-yl)-benzamide]: the 50% inhibitory concentration (IC50) was in the range of 0.5 to 5 µM. As for `CC1CN(C2CCCC2)c2nc(Nc3ccc(O)c(NC(=O)c4ccncc4)c3)ncc2N(C)C1=O` (racemic) [I-48, (rac)-N-[5-(9-Cyclopentyl-5,7-dimethyl-6-oxo-6,7,8,9-tetrahydro-5H-pyrimido[4,5-b][1,4]diazepin-2-ylamino)-2-hydroxy-phenyl]-isonicotinamide], the figure is 0.5 to 5 µM; as for `COCCN1CCC(=O)N(C)c2cnc(Nc3ccc(C(=O)NC4CCN(C)CC4)cc3OC)nc21` [I-40, 3-Methoxy-4-[9-(2-methoxy-ethyl)-5-methyl-6-oxo-6,7,8,9-tetrahydro-5H-pyrimido[4,5-b][1,4]diazepin-2-ylamino]-N-(1-methyl-piperidin-4-yl)-benzamide], 0.5 to 5 µM; as for `CC1CN(C2CCCC2)c2nc(Nc3ccc(C(=O)NC4CCN(C)CC4)c(Cl)c3)ncc2N(C)C1=O` (racemic) [I-84, (rac)-2-Chloro-4-(9-cyclopentyl-5,7-dimethyl-6-oxo-6,7,8,9-tetrahydro-5H-pyrimido[4,5-b][1,4]diazepin-2-ylamino)-N-(1-methyl-piperidin-4-yl)-benzamide], less than 0.5 µM. The result for `COc1cc(C(=O)NC2CCN(C)CC2)ccc1Nc1ncc2c(n1)N1CCCC(C1)C(=O)N2C` (racemic) [I-67, (rac)-3-Methoxy-4-(8-methyl-9-oxo-1,3,5,8-tetraaza-tricyclo[8.3.1.0*2,7*]tetradeca-2,4,6-trien-4-ylamino)-N-(1-methyl-piperidin-4-yl)-benzamide] reads more than 5 µM. Compound `CCC1CN(C2CCCC2)c2nc(Nc3ccc(C(=O)NC4CCN(C)CC4)cc3OC)ncc2N(CC)C1=O` (racemic) [I-15, (rac)-4-(9-Cyclopentyl-5,7-diethyl-6-oxo-6,7,8,9-tetrahydro-5H-pyrimido[4,5-b][1,4]diazepin-2-ylamino)-3-methoxy-N-(1-methyl-piperidin-4-yl)-benzamide] returned an IC50 of 0.5 to 5 µM. The compound `COc1cc(C(=O)N2CCOCC2)ccc1Nc1ncc2c(n1)N(C1CCCCC1)CCC(=O)N2` [I-31, 9-Cyclohexyl-2-[2-methoxy-4-(morpholine-4-carbonyl)-phenylamino]-5,7,8,9-tetrahydro-pyrimido[4,5-b][1,4]diazepin-6-one] registered an IC50 of more than 5 µM. With `CC1CN(C2CCCC2)c2nc(Nc3cccc(C(=O)NCCCN(C)C)c3)ncc2N(C)C1=O` (racemic) [I-70, (rac)-3-(9-Cyclopentyl-5,7-dimethyl-6-oxo-6,7,8,9-tetrahydro-5H-pyrimido[4,5-b][1,4]diazepin-2-ylamino)-N-(3-dimethylamino-propyl)-benzamide], the 50% inhibitory concentration (IC50) was 0.5 to 5 µM.
